What was measured:
[1] = system: U937 cells; assay: EC50 of necroptosis inhibition in U937 cells (TSZ-induced, CellTiter-Glo); format: cell-based; conditions: Homo sapiens, U-937; TSZ (hTNF-α, SM-164, Z-VAD-FMK) 20 hours; 10 concentration points; read-out: EC50 intervals of necroptosis inhibition in U937 cells
How it was run: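 Luminescent ATP readout (CellTiter-Glo) after 20 h gave viability of TSZ-challenged U937 cells; compounds were added 15 min ahead of TNF-α/SM-164/Z-VAD-FMK. EC50 derived by variable-slope nonlinear regression of inhibition relative to no-TSZ and TSZ-alone controls.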

[2] = biological target: T1, RIPK1 kinase (Homo sapiens, UniProt Q13546); assay: In vitro RIPK1 kinase activity IC50 assay (ADP-Glo); format: biochemical; conditions: ATP 10 μM; MBP substrate 100 μg/mL; 8 concentration points; read-out: IC50 range of compounds for RIPK1 kinase activity
T1 construct: purchased Promega VA7593
T1 sequence (Q13546 1-671): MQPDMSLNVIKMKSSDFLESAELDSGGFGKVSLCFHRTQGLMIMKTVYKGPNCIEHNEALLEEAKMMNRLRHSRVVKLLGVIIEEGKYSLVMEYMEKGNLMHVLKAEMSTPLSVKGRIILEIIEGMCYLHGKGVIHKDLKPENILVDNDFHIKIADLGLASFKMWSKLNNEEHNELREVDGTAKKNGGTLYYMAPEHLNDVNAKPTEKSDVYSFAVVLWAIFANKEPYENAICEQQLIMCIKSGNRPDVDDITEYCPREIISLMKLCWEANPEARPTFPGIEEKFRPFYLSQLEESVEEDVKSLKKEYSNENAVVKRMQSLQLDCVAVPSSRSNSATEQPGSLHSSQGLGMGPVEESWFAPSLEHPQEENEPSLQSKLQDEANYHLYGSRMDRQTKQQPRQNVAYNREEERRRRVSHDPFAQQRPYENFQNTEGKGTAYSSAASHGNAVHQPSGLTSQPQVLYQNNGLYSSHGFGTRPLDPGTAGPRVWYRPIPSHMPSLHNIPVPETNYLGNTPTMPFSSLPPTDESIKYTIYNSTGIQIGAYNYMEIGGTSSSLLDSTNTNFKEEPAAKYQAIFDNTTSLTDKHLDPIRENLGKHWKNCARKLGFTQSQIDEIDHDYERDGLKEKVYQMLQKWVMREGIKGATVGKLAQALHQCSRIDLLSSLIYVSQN
How it was run: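 Human RIPK1 preincubated 15 min at room temperature with compound (8-point 1:5 dilution series, 1% DMSO in kinase buffer D). Reaction then ran 1 h with 10 μM ATP and 100 μg/mL MBP substrate; ADP measured by ADP-Glo luminescence, IC50 from four-parameter nonlinear fit.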

Row | SMILES | EC50 [1] [µM] | IC50 [2] [µM]
1 | CN1C(=O)[C@@H](NC(=O)C(=O)NCc2ccccc2)COc2ccc(C#CCN3CCOCC3)cc21 [Example 106, (S)—N^1-benzyl-N^2-(5-methyl-7-(3-morpholinoprop-1-yn-1-yl)-4-oxo-2,3,4,5-tetrahydrobenzo[b][1, 4]oxazepin-3-yl)oxalamide] | < 0.1 | < 0.1
2 | CN1C(=O)[C@@H](NC(=O)C(=O)NCc2ccccc2)COc2ccc(C#CCN3CCNC(=O)C3)cc21 [Example 107, (S)—N^1-benzyl-N^2-(5-methyl-4-oxo-7-(3-(3-oxopiperazin-1-yl)prop-1-yn-1-yl)-2,3,4,5-tetrahydrobenzo[b][1,4]oxazepin-3-yl)oxalamide] | < 0.1 | < 0.1
3 | CN1C(=O)[C@H](NC(=O)C(=O)NCCc2cccc(F)c2)COc2ccc(C#CCCO)cc21 [Example 109, (R)—N^1-(3-fluorophenethyl)-N^2-(7-(4-hydroxybut-1-yn-1-yl)-5-methyl-4-oxo-2,3,4,5-tetrahydrobenzo[b][1,4]oxazepin-3-yl)oxalamide] | < 0.1 | < 0.1
4 | CN1C(=O)[C@@H](NC(=O)C(=O)NCCc2cccc(F)c2)COc2ccc(C#CC3(O)COC3)cc21 [Example 110, (S)—N^1-(3-fluorophenethyl)-N^2-(7-((3-hydroxyoxetan-3-yl)ethynyl)-5-methyl-4-oxo-2,3,4,5-tetrahydrobenzo[b][1,4]oxazepin-3-yl)oxalamide] | < 0.1 | < 0.1
5 | CN1C(=O)[C@@H](NC(=O)C(=O)NCCc2cccc(F)c2)COc2ccc(C#CCN3CC[C@@H](O)C3)cc21 [Example 114, N^1-(3-fluorophenethyl)-N^2-((S)-7-(3-((R)-3-hydroxypyrrolidin-1-yl)prop-1-yn-1-yl)-5-methyl-4-oxo-2,3,4,5-tetrahydrobenzo[b][1,4]oxazepin-3-yl)oxalamide] | < 0.1 | < 0.1
6 | CN1C(=O)[C@@H](NC(=O)C(=O)NCCc2cccc(F)c2)COc2ccc(C#CCN3CC[C@H](O)C3)cc21 [Example 115, N^1-(3-fluorophenethyl)-N^2-((S)-7-(3-((S)-3-hydroxypyrrolidin-1-yl)prop-1-yn-1-yl)-5-methyl-4-oxo-2,3,4,5-tetrahydrobenzo[b][1,4]oxazepin-3-yl)oxalamide] | < 0.1 | < 0.1
7 | CN1C(=O)[C@@H](NC(=O)C(=O)NCCc2cccc(F)c2)COc2ccc(C#Cc3cccnc3)cc21 [Example 117, (S)—N^1-(3-fluorophenethyl)-N^2-(5-methyl-4-oxo-7-(pyridin-3-ylethynyl)-2,3,4,5-tetrahydrobenzo[b][1,4]oxazepin-3-yl)oxalamide] | < 0.1 | < 0.1
8 | CN1C(=O)[C@@H](NC(=O)C(=O)NCCc2cccc(F)c2)COc2ccc(C#CCN3CCC(=O)CC3)cc21 [Example 118, (S)—N^1-(3-fluorophenethyl)-N^2-(5-methyl-4-oxo-7-(3-(4-oxopiperidin-1-yl)prop-1-yn-1-yl)-2,3,4,5-tetrahydrobenzo[b][1,4]oxazepin-3-yl)oxalamide] | < 0.1 | < 0.1
9 | CN1C(=O)[C@@H](NC(=O)C(=O)NCCc2cccc(F)c2)COc2ccc(C#CCN3CCOCC3)cc21 [Example 120, (S)—N^1-(3-fluorophenethyl)-N^2-(5-methyl-7-(3-morpholinoprop-1-yn-1-yl)-4-oxo-2,3,4,5-tetrahydrobenzo[b][1,4]oxazepin-3-yl)oxalamide] | < 0.1 | < 0.1
10 | CN1C(=O)[C@@H](NC(=O)C(=O)NCCc2cccc(F)c2)COc2ccc(C#CCN3C(=O)CCC3=O)cc21 [Example 122, (S)—N^1-(7-(3-(2,5-dioxopyrrolidin-1-yl)prop-1-yn-1-yl)-5-methyl-4-oxo-2,3,4,5-tetrahydrobenzo[b][1,4]oxazepin-3-yl)-N^2-(3-fluorophenethyl)oxalamide] | < 0.1 | < 0.1
11 | CN1C(=O)[C@@H](NC(=O)C(=O)NCCc2cccc(F)c2)COc2ccc(C#CCN3CCNC(=O)C3)cc21 [Example 123, (S)—N^1-(3-fluorophenethyl)-N^2-(5-methyl-4-oxo-7-(3-(3-oxopiperazin-1-yl)prop-1-yn-1-yl)-2,3,4,5-tetrahydrobenzo[b][1,4]oxazepin-3-yl)oxalamide] | < 0.1 | < 0.1
12 | C[C@@H](NC(=O)C(=O)N[C@H]1COc2ccc(C#CCN3CC[C@@H](O)C3)cc2N(C)C1=O)c1ccccc1 [Example 128, N^1-((S)-7-(3-((R)-3-hydroxypyrrolidin-1-yl)prop-1-yn-1-yl)-5-methyl-4-oxo-2,3,4,5-tetrahydrobenzo[b][1,4]oxazepin-3-yl)-N^2-((R)-1-phenylethyl)oxalamide] | < 0.1 | < 0.1
13 | C[C@@H](NC(=O)C(=O)N[C@H]1COc2ccc(C#CCN3CC[C@H](O)C3)cc2N(C)C1=O)c1ccccc1 [Example 130, N^1-((S)-7-(3-((S)-3-hydroxypyrrolidin-1-yl)prop-1-yn-1-yl)-5-methyl-4-oxo-2,3,4,5-tetrahydrobenzo[b][1,4]oxazepin-3-yl)-N^2-((R)-1-phenylethyl)oxalamide] | < 0.1 | < 0.1
14 | C[C@@H](NC(=O)C(=O)N[C@H]1COc2ccc(C#CC3(O)COC3)cc2N(C)C1=O)c1ccccc1 [Example 132, N^1-((S)-7-((3-hydroxyoxetan-3-yl)ethynyl)-5-methyl-4-oxo-2,3,4,5-tetrahydrobenzo[b][1,4]oxazepin-3-yl)-N^2-((R)-1-phenylethyl)oxalamide] | < 0.1 | < 0.1
15 | C[C@@H](NC(=O)C(=O)N[C@H]1COc2ccc(C#CC3CCN(CC#N)CC3)cc2N(C)C1=O)c1ccccc1 [Example 137, N^1-((S)-7-((1-(cyanomethyl)piperidin-4-yl)ethynyl)-5-methyl-4-oxo-2,3,4,5-tetrahydrobenzo[b][1, 4]oxazepin-3-yl)-N^2-((R)-1-phenylethyl)oxalamide] | < 0.1 | < 0.1
16 | C[C@@H](NC(=O)C(=O)N[C@H]1COc2ccc(C#CCN3CCC(O)CC3)cc2N(C)C1=O)c1ccccc1 [Example 138, N^1-((S)-7-(3-(4-hydroxypiperidin-1-yl)prop-1-yn-1-yl)-5-methyl-4-oxo-2,3,4,5-tetrahydrobenzo[b][1,4]oxazepin-3-yl)-N^2-((R)-1-phenylethyl)oxalamide] | < 0.1 | < 0.1
17 | C[C@@H](NC(=O)C(=O)N[C@H]1COc2ccc(C#CCN3CCC(=O)CC3)cc2N(C)C1=O)c1ccccc1 [Example 139, N^1-((S)-5-methyl-4-oxo-7-(3-(4-oxopiperidin-1-yl)prop-1-yn-1-yl)-2,3,4,5-tetrahydrobenzo[b][1, 4]oxazepin-3-yl)-N^2-((R)-1-phenylethyl)oxalamide] | < 0.1 | < 0.1
18 | C[C@@H](NC(=O)C(=O)N[C@H]1COc2ccc(C#CCN3CCOCC3)cc2N(C)C1=O)c1ccccc1 [Example 140, N^1-((S)-5-methyl-7-(3-morpholinoprop-1-yn-1-yl)-4-oxo-2,3,4,5-tetrahydrobenzo[b][1,4]oxazepin-3-yl)-N^2-((R)-1-phenylethyl)oxalamide] | < 0.1 | < 0.1
19 | C[C@@H](NC(=O)C(=O)N[C@H]1COc2ccc(C#CCN3C(=O)CCC3=O)cc2N(C)C1=O)c1ccccc1 [Example 144, N^1-((S)-7-(3-(2,5-dioxopyrrolidin-1-yl)prop-1-yn-1-yl)-5-methyl-4-oxo-2,3,4,5-tetrahydrobenzo[b][1,4]oxazepin-3-yl)-N^2-((R)-1-phenylethyl)oxalamide] | < 0.1 | < 0.1
20 | C[C@@H](NC(=O)C(=O)N[C@H]1COc2ccc(C#CCN3CCNC(=O)C3)cc2N(C)C1=O)c1ccccc1 [Example 145, N^1-((S)-5-methyl-4-oxo-7-(3-(3-oxopiperazin-1-yl)prop-1-yn-1-yl)-2,3,4,5-tetrahydrobenzo[b][1, 4]oxazepin-3-yl)-N^2-((R)-1-phenylethyl)oxalamide] | < 0.1 | < 0.1
21 | C[C@@H](NC(=O)C(=O)N[C@H]1COc2ccc(C#CCN(C)C)cc2N(C)C1=O)c1ccccc1 [Example 146, N^1-((S)-7-(3-(dimethylamino)prop-1-yn-1-yl)-5-methyl-4-oxo-2,3,4,5-tetrahydrobenzo[b][1,4]oxazepin-3-yl)-N^2-((R)-1-phenylethyl)oxalamide] | < 0.1 | < 0.1
22 | C[C@@H](NC(=O)C(=O)N[C@H]1COc2ccc(C#CC3CN(CC#N)C3)cc2N(C)C1=O)c1ccccc1 [Example 148, N^1-((S)-7-((1-(cyanomethyl)azetidin-3-yl)ethynyl)-5-methyl-4-oxo-2,3,4,5-tetrahydrobenzo[b][1, 4]oxazepin-3-yl)-N^2-((R)-1-phenylethyl)oxalamide] | < 0.1 | < 0.1
